{"source": "patent US12285433B2", "about": "“Diltiazem for use in the treatment of microbial infections” (UNIVERSITE CLAUDE BERNARD LYON 1, priority 2018, dated 2025)", "key": {"IFN-λ2 (IFNL2) gene": {"tested_on": "IFN-λ2 (IFNL2) gene", "test": "In vivo induction of IFN-λ2 (IFNL2) gene expression after intranasal instillation in BALB/c mice (RT-qPCR)", "settings": "20 mg/kg intranasal, D0/D1/D2 or D0/D2/D4, sampled D5"}, "[1]": {"tested_on": "recombinant hMPV-GFP virus (strain C-85473)", "test": "hMPV replication in reconstituted human respiratory epithelia (GFP epifluorescence, RT-qPCR of N gene)", "format": "cell-based, human metapneumovirus", "settings": "MOI 0.1", "method": "Viral replication in reconstituted human epithelial models (MucilAir® HAE, Epithelix) of nasal origin was studied on epithelia treated or not treated with diltiazem. To that end, (i) fluorescence light microscopy photos were used to evaluate the efficacy and progression of the infection and (ii) quantification of the viral genome by RTqPCR was performed, on the one hand at the apical pole of the epithelium (surface harvesting) to quantify the excretion of viral progeny, and on the other hand in the total lysates of epithelial cells at end point (day 5 post-infection) to quantify intracellular viral replication within the epithelium.\nHuman respiratory epithelia (Mucilair, Epithelix) were infected with a recombinant hMPV-GFP virus (strain C-85473) at an MOI of 0.1, then treated (via the basolateral medium of the epithelia) or not with 3 successive doses of diltiazem at 90 μM at D0, D1 and D3 post-infection (3 epithelia per condition).\nEpifluorescence microscopy observations were performed on D4 post-infection to observe the impact of diltiazem treatment on viral replication (FIG. 7B).\nOn day 3 post-infection, a wash at the apical pole of the infected epithelium, treated or not, was performed in order to harvest the viral progeny produced. The genomic viral RNA was extracted and quantified by RT-qPCR (Biosystems™ PowerUp™ SYBR™ Green, Thermo Fisher Scientific) using a plasmid containing the HMPV N gene. The results are expressed in copies of the N gene/μg RNA extracted (FIG. 7C).\nOn day 5 post-infection, epithelial cells were harvested and lysed to extract total RNA. Total RNAs corresponding to the hMPV N viral gene were quantified by Rt-qPCR (Biosystems™ PowerUp™ SYBR™ Green, Thermo Fisher Scientific), using a range made from a plasmid containing the HMPV N gene. The results are expressed in copies of the N gene/μg RNA extracted (FIG. 7D)."}, "[2]": {"tested_on": "respiratory syncytial virus (RSV)", "test": "RSV challenge infection in BALB/c mouse model, pulmonary viral titers by RT-qPCR (F gene)", "format": "in vivo", "settings": "BALB/c mice, 5×10^5 PFU RSV intranasally; 50 mg/kg per os, 5 treatments; day 5 post-infection", "method": "FIG. 4D schematically represents the chronology of infection and treatment of the mice: • BALB/c mice were randomized into 3 groups of 5 individuals and then infected intranasally with 50 μL of a viral suspension containing 5×10^5 PFU of RSV (Day 0). Six hours before infection, the mice were treated with either 40 mg/kg intraperitoneal ribavirin (RSV RIB) or 50 mg/kg diltiazem peros (RSV DIL), or PBS (RSV PBS) as negative control. • The same treatments were repeated every 24 h, with a total of 3 treatments for ribavirin and 5 treatments for diltiazem or PBS. • On day 5 post-infection (D5, corresponding to the peak of viral replication), the mice in each group were euthanized and their lungs were aseptically recovered to measure their pulmonary viral titers by RTqPCR (F gene).\nRT-qPCR quantification of the RSV viral genome copy number (quantifying the copies of the F gene) relative to the total amount of RNA extracted from the lungs at 5 days post-infection was performed, and the results are presented in FIG. 4E.\nThe following statistical tests were used: One-way ANOVA with Bonferroni post-test to compare each virus to the mock condition (PBS treatment). *p<0.05."}, "[3]": {"tested_on": "IFIT1, IFIT2, IFIT3, IF127, IFN-λ1, IFN-λ2, IF144L and IFITM1 genes", "test": "RT-qPCR confirmation of induction of 8 genes associated with the type III interferon response", "format": "cell-based, human", "settings": "90 μM via basolateral pole, 3 days"}, "[4]": {"tested_on": "genes encoding the type III interferons IFN-λ1, IFN-λ2 and IFN-λ3", "test": "RNAseq expression of type III interferon genes and response genes, basolateral treatment of reconstituted human respiratory epithelia (MucilAir HAE)", "format": "cell-based", "settings": "90 μM via basolateral pole, 3 days (3 administrations)", "method": "(§1) Reconstituted human respiratory epithelia (MucilAir® HAE, Epithelix) maintained in culture at the air-liquid interface according to the instructions of the supplier Epithelix, were treated or not with diltiazem (90 μM) via their culture medium at their basolateral pole. The diltiazem treatment was repeated for 3 consecutive days (3 administrations in total).\nTreated and untreated epithelia were then lysed with 150 μL of RLT buffer (Qiagen). […] Each library was amplified, quantified and indexed with primers provided in the ScriptSeq™ Index PCR Primers Kit (RSBC10948, Epicentre) and sequenced. Sequencing was conducted on an Illumina HiSeq 2500 system with a minimum requirement of 40 million “reads” sequenced per sample.\nThe demultiplexing of the data and the conversion of the BCL files resulting from the sequencing into FASTQ files were carried out using Illumina's bcl2fastq tool, in its version 1.8.4. […] A pseudo-alignment of the trimmed reads on the human genome (Homo Sapiens: GRCh38.p11) using the Kallisto software was performed, followed by a statistical analysis using the R 3.3.1 software and the EdgeR 3.14.0 package.\nThe differential in gene expression between epithelial cells treated with diltiazem and control epithelial cells was calculated using a linear model with a p-value correction by the Benjamini-Hochberg method. […]"}, "[5]": {"tested_on": "respiratory syncytial virus (Long strain, ATCC VR-26)", "test": "RSV replication in infected reconstituted human respiratory epithelia (RT-qPCR, F gene)", "format": "cell-based", "settings": "MOI 1; 90 μM basolateral, 4 administrations from 5 hpi; 6 days post-infection", "method": "Reconstituted human respiratory epithelia (MucilAir® HAE, Epithelix) were maintained in culture at the air-liquid interface according to the instructions of the supplier Epithelix and were infected with respiratory syncytial virus (Long strain, ATCC VR-26) at a multiplicity of infection (MOI) 1, then treated or not with diltiazem (90 μM) via their culture medium at their basolateral pole. Diltiazem treatment was performed at 5 hours post-infection and then repeated for 3 consecutive days (4 administrations in total).\nAt 6 days post-infection, samples at the apical pole of treated and untreated infected epithelia, as well as the epithelia themselves, were lysed with 150 μL of RLT buffer (Qiagen). The process of the experiment is schematically represented in FIG. 4A.\nTotal RNA was extracted using the RNeasy Kit (Qiagen), according to the supplier's instructions, for quantification of viral genome copy number (F gene) by RT-qPCR at the apical pole, i.e. in the supernatant (FIG. 4B), as well as in the epithelia (FIG. 4C)."}, "[6]": {"tested_on": "human parainfluenza virus type 3 (strain C243 ATCC VR-93)", "test": "hPIV-3 replication in reconstituted human respiratory epithelia (cytopathic effect, TEER, TCID50 titration in LLC-MK2 cells)", "format": "cell-based", "settings": "MOI 0.1, 90 μM basolateral daily", "method": "Reconstituted human respiratory epithelia were infected with human parainfluenza virus type 3 (strain C243 ATCC VR-93) at an MOI of 0.1, and treatment of the basolateral medium with 90 μM diltiazem was started 2 hours post-infection and continued daily for 4 consecutive days. Transepithelial electrical resistance (TEER), which reflects the integrity of the epithelium, was measured once daily from 48 h post-infection to 120 hours post-infection.\nApical infectious viral titers (TCID50/mL) were determined in LLC-MK2 cells from washings collected starting 48 h post-infection (hpi), and up to 120 hpi, as shown in FIG. 5A."}, "[7]": {"tested_on": "interferon lambda 1 (IL-29)", "test": "ELISA measurement of interferon lambda 1 (IL-29) secretion by reconstituted human respiratory epithelia", "format": "cell-based", "settings": "ELISA after 72 h; 90 μM via basolateral pole, 3 administrations", "method": "as §1, with “Epithelix) were” for “Epithelix)”, “Epithelix and” for “Epithelix,”\nSecretion levels (pg/mL) of interferon lambda 1 (IL-29) at the apical and basolateral poles of human respiratory epithelia treated and untreated with diltiazem were measured by ELISA after 72 h of treatment according to the supplier's instructions (#3570-1H, Mabtech, Stockholm, Sweden)."}}, "data": [{"molecule": "COc1ccc([C@@H]2Sc3ccccc3N(CCN(C)C)C(=O)[C@@H]2OC(C)=O)cc1", "note": "[diltiazem]", "values": [{"measurement": "IFN-λ2 (IFNL2) gene expression in nasal cavities relative to mock-treated mice", "setting": "IFN-λ2 (IFNL2) gene", "value": "activates the IFN III pathway"}, {"measurement": "fluorescence corresponding to viral expression of GFP (epifluorescence microscopy)", "setting": "[1]; 90 μM basolateral at D0, D1, D3, D4 post-infection", "value": "very few fluorescent cells"}, {"measurement": "reduction of viral genome (N gene) in epithelia (total lysate) versus untreated epithelia", "setting": "[1]; 90 μM basolateral at D0, D1, D3, day 5 post-infection", "value": 4, "unit": "log 10"}, {"measurement": "reduction of viral genome (N gene) in apical supernatants versus untreated epithelia", "setting": "[1]; 90 μM basolateral, day 3 post-infection", "value": 2, "unit": "log 10"}, {"measurement": "pulmonary viral titers (RSV F gene copies, RT-qPCR) compared with PBS control group and ribavirin-treated group", "setting": "[2]", "value": "significantly reduced pulmonary viral titers"}, {"measurement": "expression of the IFIT1, IFIT2, IFIT3, IF127, IFN-λ1, IFN-λ2, IF144L and IFITM1 genes compared with untreated epithelia", "setting": "[3]", "value": "significant increase"}, {"measurement": "expression of type III interferon response genes (IF144L, IFIT1, IFIT2, IFIT3, IFITM1, ISG15, MX1, MX2, OAS1, OAS2, OAS3, OASL, RSAD2, STAT1)", "setting": "[4]", "value": "significantly stimulates the expression"}, {"measurement": "amount of RSV viral genome (F gene) in the culture supernatant (apical pole) compared with untreated epithelia", "setting": "[5]", "value": "much lower"}, {"measurement": "amount of RSV viral genome (F gene) in the epithelium compared with untreated epithelia", "setting": "[5]", "value": "much lower"}, {"measurement": "transepithelial electrical resistance (TEER), integrity of the epithelium", "setting": "[6]; 48 to 120 hpi", "value": "integrity appears to be more preserved"}, {"measurement": "cytopathic effects induced by hPIV-3 (microscopy)", "setting": "[6]; 96 and 120 hpi", "value": "greater and easily visible microscopically in untreated reconstituted human respiratory epithelia, unlike those treated with diltiazem"}, {"measurement": "infectious viral titer at the apical surface at 96 h post-infection", "setting": "[6]; untreated 10^7", "value": "10^5 TCID50/mL"}, {"measurement": "IFN-λ1 (IL-29) secretion at the apical pole", "setting": "[7]", "value": "very sharply increased"}, {"measurement": "IFN-λ1 (IL-29) secretion at the basolateral pole", "setting": "[7]", "value": "significant, but less marked, increase"}]}]}
